Patent publication US8974815B2, “Fibrous membrane for biomedical application based on poly(ester-amide)s” (Cornell University, priority 2005, dated 2015)

Assays:
[1] = In vitro release of 4-amino-TEMPO in PBS medium (ESR); format: physicochemical
Procedure: (§1) The in vitro release of 4-amino-TEMPO nitroxyl radicals from electrospun PEA fibers was investigated by immersing ˜300 mg 8-Phe-4 electrospun nano fibrous mat into a glass vial filled with 5 mL of 0.1M phosphate buffer solution of pH=7.42. The 8-Phe-4 nano fibrous mat was pre-loaded with 4-amino-TEMPO at a 10.0 mg 4-amino-TEMPO per g 8-Phe-4 and electrospun from a 39% wt/vol 8-Phe-4 solution in the mixture solvent of chloroform and DMF at volume ratio of 2 to 1. The glass vial was then placed in a water bath shaker maintained at 37° C. and 100 cycles/min. 10 μl of supernant of the vial was taken at a determined time and the amount of 4-amino-TEMPO nitroxyl radicals was measured by electron spin resonance (ESR) as a function of incubation time.
(§2) Three samples were taken for each measurement and the average results were reported. The ESR spectra at X-band were obtained from a Bruker 200D SRC spectrometer operating at 9.6 GHz, using 100 KHz modulation. The ESR signal intensity which is proportional to the mass of 4-amino-TEMPO nitroxyl free radical was obtained by a double integration of the recorded first derivative signals. A linear correlation (γ^2=0.9996) between the ESR signal intensity and the mass of nitroxyl radical ranging from 1.67 μg to 0.05 μg was obtained. The actual amount of 4-amino-TEMPO nitroxyl radicals loaded into the electrospun fibers was also determined by a complete dissolution of 8-Phe-4/4-amino-TEMPO electrospun fibrous membranes in DMF and the actual pre-loaded 4-amino-TEMPO amount within 8-Phe-4 fibers was calculated from the established calibration curve. The nitroxyl radicals released was measured in triplicates and expressed in the percentage of the initial pre-loaded amounts in the 8-Phe-4 fibers.

α-chymotrypsin = α-chymotrypsin (Bos taurus, UniProt P00766); test: In vitro release of 4-amino-TEMPO in α-chymotrypsin solution (ESR); format: in vitro ADME
Procedure: as §1, §2
4-amino-TEMPO was physically pre-loaded into the 640 nm 8-Phe-4 electrospun fibers at a loading level of 10.0 mg TEMPO per gram of 8-Phe-4. Since 4-amino-TEMPO is a free radical, the actual amounts of 4-amino-TEMPO loaded into the 8-Phe-4 electrospun nanofibers and its subsequently release from the fibers in either PBS buffer or a α-chymotrypsin solution (0.1 mg/mL α-chymotrypsin) were quantified by ESR.

[2] = Gallium nitrate release from 8P4 fabric (conductivity); format: physicochemical; details: from 8P4 fabric at 1.2, 1.0 and 0.2 g gallium nitrate per g 8P4; water extraction
Procedure: In order to determine release profiles of gallium nitrate from the fabric, a calibration curve was prepared as follows: Solutions of known concentrations of gallium nitrate in chloroform (not completely dissolved) were extracted with 10-mL deionized water. The electrical resistance of the aqueous solutions from extraction was measured. A calibration curve was constructed based on conductivity (inverse of measured resistance) and known concentration of gallium nitrate.
Drug release was established at 1, 2, 3, 4, 5, 8, 12, 18 and 28 days by extraction with water and measuring conductivity and generating gallium nitrate release profiles for 1.2 grams of gallium nitrate per gram (8P4), 1.0 gram of gallium nitrate per gram (8P4) and 0.2 am of gallium nitrate per gram (8P4). In each case there was a burst of drug release within the first 5 days.

CC1(C)CC(N)CC(C)(C)N1[O] [4-amino-TEMPO, 4-amino-2,2,6,6-tetramethylpiperadine-1-oxy radical]
slope of the initial linear part of the release profile ([1]; PBS medium alone, 37° C.): 2.0 %/day
4-amino-TEMPO still entrapped inside the 8-Phe-4 matrix ([1]; after one month in PBS): more than 60%
initial burst release, of total loaded nitroxyl radical ([1]; first day, from 640 nm 8-Phe-4 nanofibers, pH 7.42 PBS, 37° C.): about 14%
residual nitroxyl radical in dissolved incubated membrane, of initial loading level ([1]; one-month incubated membrane dissolved in DMF, ESR): about 58%
release slope in α-chymotrypsin relative to PBS alone (α-chymotrypsin): more than 35 times
slope of the initial linear part of the release profile (α-chymotrypsin; 0.1 mg/mL α-chymotrypsin solution, 37° C.): 72 %/day
incorporated TEMPO released (α-chymotrypsin; within the 1st hr, α-chymotrypsin solution): more than 23%
time to complete release (α-chymotrypsin; α-chymotrypsin solution): ≤ 120 h

O=[N+]([O-])[O-].O=[N+]([O-])[O-].O=[N+]([O-])[O-].[Ga+3] [gallium nitrate, Gallium (III) nitrate hydrate]
period of burst of drug release [2]: ≤ 5 days
